Measured values as given in patent publication US5478817A, “Digitoxigenin and dihydrodigitoxigenin 3β-derivatives and pharmaceutical compositions comprising same for the treatment of cardiovascular disorders” (priority 1992, dated 1995).
Counter-ions that a name gives are not always drawn. Like-named read-outs stand apart in the source and are kept apart here.

Legend:
[1] = biological target: T1, purified Na^+,K^+ -ATPase (Homo sapiens, UniProt P05023); assay: inhibition of the activity of the purified Na^+,K^+ -ATPase (hydrolysis of ^32 P-ATP); assay type: biochemical
T1 construct: Na^+,K^+ -ATPase receptor purified according to Jorghensen; from tissue
Text: (§1) To test the affinity for the receptor site of the Na^+,K^+ -ATPase and the agonist or inhibitory activity on the enzyme, the following tests were used: a) displacement of the specific ^3 H-ouabain binding from the Na^+,K^+ -ATPase receptor purified according to Jorghensen (Jorghensen P., BBA, 1974,356, 36) and Erdmann (Erdmann E. et al., Arzneim. Forsh., 1984, 34 (II), 1314); b) inhibition of the activity of the purified Na^+,K^+ -ATPase measured as % of hydrolysis of ^32 P-ATP in presence and in absence of the tested compound (Mall F. et al., Biochem. Pharmacol., 1984, 33, 47).
(§2) The affinity and the inhibitory activity of the aglycone digitoxigenin (DIGI), dihydrodigitoxigenin 20(S) (DIGI 20(S)) and dihydrodigitoxigenin 20(R) (DIGI 20(R)) and some basic 3β-derivatives on the two tests are shown in the following table: […]

[2] = test system: spontaneous hypertensive rats (MHS); assay: systolic blood pressure and heart rate in hypertensive MHS rats (indirect tail-cuff); assay type: in vivo, rat (MHS); conditions: 20 mg/Kg/os daily for ten days in Methocel 0.5% w/v, 7 MHS rats; for SBP (systolic blood pressure): controls 171 +/- 4.5; for HR (heart rate): controls 384 +/- 11.0
Method: The ability of these compounds to lower blood pressure in adult hypertensive MHS rats was tested by the following method:
systolic blood pressure (SBP) and heart rate (HR) were measured by an indirect tail-cuff method in three-month old hypertensive MHS rats before beginning treatment (basal values). The rats were then subdivided in two groups of 7 animals each, one receiving the compound and the other, the control group, receiving only the vehicle. The compound, suspended in METHOCEL® 0.5% (w/v), for ten days, was administered daily by mouth. SBP and HR were measured daily 6 and 24 hours after the treatment. When ten-day treatment washout had been under way for at least two days, whether the treatment mantains SBP low or re-establish the basal values was verified. […]

[3] = biological target: T2, Na^+,K^+ -ATPase receptor (Homo sapiens, UniProt P05023); assay: displacement of the specific ^3 H-ouabain binding from the Na^+,K^+ -ATPase receptor
T2 construct: Na^+,K^+ -ATPase receptor purified according to Jorghensen; from tissue
Text: as §1, §2

[4] = % hydrolysis of ^32 P-ATP, purified Na^+,K^+ -ATPase, read-out: Inhibitory Activity log IC50 (converted)
[5] = ^3 H-ouabain displacement, purified Na^+,K^+ -ATPase, read-out: Binding ^3 H-Ouab. Displacement log IC50 (converted)

C[C@]12CC[C@H](SCC3CO3)C[C@H]1CC[C@@H]1[C@@H]2CC[C@]2(C)[C@@H](C3=CC(=O)OC3)CC[C@]12O (stereo partly drawn) [Comp. I-h, 3β-(2,3-Epoxy)propylthio-14β-hydroxy-5β-card-20(22)-enolide]
IC50 [1]: 631 nM
SBP (systolic blood pressure) [2]: 157 +/- 6.0 mm Hg
HR (heart rate) [2]: 382 +/- 6.8 beats/min.
IC50 [3]: 63.1 nM

C[C@]12CC[C@H](OCCN3CCCC3)C[C@H]1CC[C@@H]1[C@@H]2CC[C@]2(C)[C@@H](C3=CC(=O)OC3)CC[C@]12O [Comp. I-a, 3β-(2-(1-Pyrrolidinyl)ethoxy)-14β-hydroxy-5β-card-20(22)-enolide]
IC50 [1]: 251 nM
IC50 [3]: 63.1 nM

C[C@]12CC[C@H](SCCCN)C[C@H]1CC[C@@H]1[C@@H]2CC[C@]2(C)[C@@H]([C@H]3COC(=O)C3)CC[C@]12O [Comp. I-l, 3β-(3-Aminopropylthio)-14β-hydroxy-5β-20(S)-cardanolide oxalate]
IC50 [1, 4]: 2000 nM
SBP (systolic blood pressure) [2]: 147 +/- 4.8 mm Hg
HR (heart rate) [2]: 390 +/- 10.0 beats/min.
IC50 [3, 5]: 251 nM

C[C@]12CC[C@H](SCCCN)C[C@H]1CC[C@@H]1[C@@H]2CC[C@]2(C)[C@@H](C3=CC(=O)OC3)CC[C@]12O [Comp. I-k, 3β-(3-Aminopropylthio)-14β-hydroxy-5β-card-20(22)-enolide oxalate]
IC50 [1]: 501 nM
SBP (systolic blood pressure) [2]: 155 +/- 4.2 mm Hg
HR (heart rate) [2]: 385 +/- 11.0 beats/min.
IC50 [3]: 79.4 nM

C[C@]12CC[C@H](O)C[C@H]1CC[C@@H]1[C@@H]2CC[C@]2(C)[C@@H]([C@@H]3COC(=O)C3)CC[C@]12O [DIGI 20(R), dihydrodigitoxigenin 20(R), reference compound]
IC50 [1]: 7940 nM
IC50 [3]: 2510 nM

C[C@]12CC[C@H](SCCCN)C[C@H]1CC[C@@H]1[C@@H]2CC[C@]2(C)[C@@H]([C@@H]3COC(=O)C3)CC[C@]12O [Comp. I-m, 3β-Aminopropylthio )-14β-hydroxy-5β-20(R)-cardanolide oxalate]
IC50 [1, 4]: 2510 nM
IC50 [3, 5]: 398 nM

C[C@]12CC[C@H](SCCN)C[C@H]1CC[C@@H]1[C@@H]2CC[C@]2(C)[C@@H](C3=CC(=O)OC3)CC[C@]12O [Comp. I-i, 3β-(2-Aminoethylthio)-14β-hydroxy-5β-card-20(22)-enolide oxalate]
IC50 [1]: 631 nM
IC50 [3]: 100 nM

C[C@]12CC[C@H](OCC[N+](C)(C)C)C[C@H]1CC[C@@H]1[C@@H]2CC[C@]2(C)[C@@H](C3=CC(=O)OC3)CC[C@]12O [Comp. I-c, 3β-(2-(trimethylammonium)ethoxy)-14β-hydroxy-5β-card-20(22)-enolide chloride]
IC50 [1]: 501 nM
SBP (systolic blood pressure) [2]: 152 +/- 5.0 mm Hg
HR (heart rate) [2]: 375 +/- 9.0 beats/min.
IC50 [3]: 251 nM

C[C@]12CC[C@H](OCCCN)C[C@H]1CC[C@@H]1[C@@H]2CC[C@]2(C)[C@@H](C3=CC(=O)OC3)CC[C@]12O [Comp. I-d, 3β-(3-Aminopropoxy)-14β-hydroxy-5β-card-20(22)-enolide oxalate]
IC50 [1]: 631 nM
SBP (systolic blood pressure) [2]: 148 +/- 3.2 mm Hg
HR (heart rate) [2]: 388 +/- 12.0 beats/min.
IC50 [3]: 126 nM

C[C@]12CC[C@H](SCCN)C[C@H]1CC[C@@H]1[C@@H]2CC[C@]2(C)[C@@H]([C@H]3COC(=O)C3)CC[C@]12O [Comp. I-j, 3β-(2-Aminoethylthio)-14β-hydroxy-5β-20(S) cardanolide oxalate]
IC50 [1, 4]: 3160 nM
IC50 [3, 5]: 316 nM

CN(C)CCOCCO[C@H]1CC[C@@]2(C)[C@H](CC[C@@H]3[C@@H]2CC[C@]2(C)[C@@H](C4=CC(=O)OC4)CC[C@]32O)C1 [Comp. I-e, 3β-(2-(2-dimethylaminoethoxy)ethoxy)-14β-hydroxy-5β-card-20(22)-enolide]
IC50 [1]: 1000 nM
SBP (systolic blood pressure) [2]: 149 +/- 4.8 mm Hg
HR (heart rate) [2]: 395 +/- 10.0 beats/min.
IC50 [3]: 100 nM

C[C@]12CC[C@H](SCC(O)CN)C[C@H]1CC[C@@H]1[C@@H]2CC[C@]2(C)[C@@H](C3=CC(=O)OC3)CC[C@]12O (stereo partly drawn) [Comp. I-u, 3β-(3-Amino-2-hydroxypropylthio)-14β-hydroxy-5β-card-20(22)-enolide]
IC50 [1]: 251 nM
SBP (systolic blood pressure) [2]: 152 +/- 5.2 mm Hg
HR (heart rate) [2]: 377 +/- 9.0 beats/min.
IC50 [3]: 50.1 nM

C[C@]12CC[C@H](O)C[C@H]1CC[C@@H]1[C@@H]2CC[C@]2(C)[C@@H]([C@H]3COC(=O)C3)CC[C@]12O [DIGI 20(S), dihydrodigitoxigenin 20(S), reference compound]
IC50 [1]: 2510 nM
IC50 [3]: 1580 nM

C[C@]12CC[C@H](SCCN3CCCC3)C[C@H]1CC[C@@H]1[C@@H]2CC[C@]2(C)[C@@H](C3=CC(=O)OC3)CC[C@]12O [Comp. I-n, 3β-(2-(1-Pyrrolidinyl)ethylthio)-14β-hydroxy-5β-card-20(22)-enolide sesquioxalate]
IC50 [1]: 398 nM
IC50 [3]: 200 nM

C[C@]12CC[C@H](O)C[C@H]1CC[C@@H]1[C@@H]2CC[C@]2(C)[C@@H](C3=CC(=O)OC3)CC[C@]12O [DIGI, digitoxigenin]
IC50 [1]: 316 nM
SBP (systolic blood pressure) [2]: 173 +/- 4.0 mm Hg
HR (heart rate) [2]: 380 +/- 10.0 beats/min.
IC50 [3]: 316 nM

C[C@]12CC[C@H](SCC[N+](C)(C)C)C[C@H]1CC[C@@H]1[C@@H]2CC[C@]2(C)[C@@H](C3=CC(=O)OC3)CC[C@]12O [Comp. I-p, 3β-(2-(Trimethylammonium)ethylthio)-14β-hydroxy-5β-card-20(22)-enolide chloride]
IC50 [1]: 794 nM
SBP (systolic blood pressure) [2]: 150 +/- 3.5 mm Hg
HR (heart rate) [2]: 378 +/- 9.3 beats/min.
IC50 [3]: 100 nM

C[C@]12CC[C@H](SCC(O)CO)C[C@H]1CC[C@@H]1[C@@H]2CC[C@]2(C)[C@@H](C3=CC(=O)OC3)CC[C@]12O (stereo partly drawn) [Comp. I-s, 3β-(2,3-Dihydroxypropylthio)-14β-hydroxy-5β-card-20(22)-enolide]
IC50 [1]: 631 nM
SBP (systolic blood pressure) [2]: 149 +/- 4.1 mm Hg
HR (heart rate) [2]: 394 +/- 6.3 beats/min.
IC50 [3]: 79.4 nM

C[C@]12CC[C@H](OCCC(=N)N)C[C@H]1CC[C@@H]1[C@@H]2CC[C@]2(C)[C@@H](C3=CC(=O)OC3)CC[C@]12O [Comp. I-f, 3β-(2-Amidinoethoxy)-14β-hydroxy-5β-card-20(22)-enolide oxalate]
IC50 [1]: 1580 nM
SBP (systolic blood pressure) [2]: 153 +/- 5.1 mm Hg
HR (heart rate) [2]: 378 +/- 8.5 beats/min.
IC50 [3]: 158 nM

C[C@]12CC[C@H](SCCCN3CCCC3)C[C@H]1CC[C@@H]1[C@@H]2CC[C@]2(C)[C@@H](C3=CC(=O)OC3)CC[C@]12O [Comp. I-q, 3β-(3-(1-Pyrrolidinyl)propylthio)-14β-hydroxy-5β-card-20(22)-enolide oxalate]
IC50 [1]: 251 nM
IC50 [3]: 158 nM

CN(C)CCCO[C@H]1CC[C@@]2(C)[C@H](CC[C@@H]3[C@@H]2CC[C@]2(C)[C@@H](C4=CC(=O)OC4)CC[C@]32O)C1 [Comp. I-b, 3β-(3-Dimethylaminopropoxy)-14β-hydroxy-5β-card-20(22)-enolide]
IC50 [1]: 5010 nM
IC50 [3]: 200 nM

C[C@]12CC[C@H](SCCCN3CCNCC3)C[C@H]1CC[C@@H]1[C@@H]2CC[C@]2(C)[C@@H](C3=CC(=O)OC3)CC[C@]12O [Comp. I-r, 3β-(3-(1-Piperazinyl)propylthio)-14β-hydroxy-5β-card-20(22)-enolide]
IC50 [1]: 631 nM
IC50 [3]: 316 nM
